Reference: the supplement of paper PMC4314810
± gives the standard deviation of the averaged measurements.

Each sequence was assayed on MCF7 (assay: HRG-induced Akt activation (dPAkt = log2 pAkt/Akt HRG-stimulated minus log2 pAkt/Akt basal) (log2 ratio difference); higher = stronger HRG-induced Akt(T308) phosphorylation). Conditions: miRNA mimic concentration 10 nM; time after transfection 72 h; heregulin 10 ng/ml; stimulation time 1 h.
In short: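 MCF7 cells ([…], 96-well plates) were transfected with a library of 879 miRNA mimics at 10 nM final using Lipofectamine RNAiMax, in two biological replicates. After 72 h, cells were stimulated with 10 ng/ml heregulin-beta1 for 1 h or left unstimulated. They were fixed with 4% PFA, and phospho-Akt(T308) and total Akt were read by In-Cell Western on an Odyssey. Signals were corrected for column-wise fixation decay, and HRG-induced Akt activation is log2(pAkt/Akt) stimulated minus unstimulated, averaged over replicates.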
UCCCACGUUGUGGCCCAGCAG was tested, and the “HRG-induced Akt activation (log2)” value was 1.44 ± 0.14. UUCAAGUAAUCCAGGAUAGGCU was tested, and the “HRG-induced Akt activation (log2)” value was 1.19 ± 0.24. With CUCUAGAGGGAAGCACUUUCUC the “HRG-induced Akt activation (log2)” value was 1.85 ± 0.4. In the case of AAAAGCUGGGUUGAGAGGGU, the “HRG-induced Akt activation (log2)” value is reported as 1.89 ± 0.17. In the case of CUCAUCUGCAAAGAAGUAAGUG, the “HRG-induced Akt activation (log2)” value is reported as 1.5 ± 0.58. In the case of UAAGUGCUUCCAUGUUUCAGUGG, the “HRG-induced Akt activation (log2)” value is reported as 0.9677 ± 0.0067. UGGUUGACCAUAGAACAUGCGC was tested, and the “HRG-induced Akt activation (log2)” value was 1.2 ± 0.092. UACGUCAUCGUUGUCAUCGUCA was tested, and the “HRG-induced Akt activation (log2)” value was 1.21 ± 0.51. For UCAUAUUGCUUCUUUCU, the “HRG-induced Akt activation (log2)” value was 1.79 ± 0.17. In the case of AACACACCUGGUUAACCUCUUU, the “HRG-induced Akt activation (log2)” value is reported as 1.23 ± 0.54. With UGGUGGGCACAGAAUCUGGACU the “HRG-induced Akt activation (log2)” value was 1.74 ± 0.12. GCUGGGCAGGGCUUCUGAGCUCCUU was tested, and the “HRG-induced Akt activation (log2)” value was 1.68 ± 0.082. For UUCACAGGGAGGUGUCAU, the “HRG-induced Akt activation (log2)” value was 1.82 ± 0.08. With UGACAACUAUGGAUGAGCUCU the “HRG-induced Akt activation (log2)” value was 1.53 ± 0.29. GACCUGGACAUGUUUGUGCCCAGU was tested, and the “HRG-induced Akt activation (log2)” value was 1.71 ± 0.12. For GUGUGCGGAAAUGCUUCUGCUA, the “HRG-induced Akt activation (log2)” value was 1.18 ± 0.2. With AGCUACAUCUGGCUACUGGGU the “HRG-induced Akt activation (log2)” value was 1.48 ± 0.25. In the case of UGUAGUGUUUCCUACUUUAUGGA, the “HRG-induced Akt activation (log2)” value is reported as 1.77 ± 0.26. In the case of UGAUUGUCCAAACGCAAUUCU, the “HRG-induced Akt activation (log2)” value is reported as 1.82 ± 0.3. For UAGUACUGUGCAUAUCAUCUAU, the “HRG-induced Akt activation (log2)” value was 1.44 ± 0.47. In the case of AGGCAUUGACUUCUCACUAGCU, the “HRG-induced Akt activation (log2)” value is reported as 1.66 ± 0.32. With CAAAGCGCUUCUCUUUAGAGUGU the “HRG-induced Akt activation (log2)” value was 0.7 ± 0.83.
